Laboratory results: PubChem BioAssay (NCI)
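Dose response: 5 concentrations. Exposure: 48 h. Format: 96-well plates. Endpoint: linear interpolation; highest concentration if not reached. GI50 marks 50% less growth. TGI marks complete inhibition of growth.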

Tests used:
Assay in all cases: inhibition of tumour cell growth, NCI panel, 48 h
[1] = system: MCF7 breast
[2] = system: BT-549 breast
[3] = system: HCT-116 colon
[4] = system: NCI-H23 lung
[5] = system: SK-OV-3 ovarian
[6] = system: 786-0 renal
[7] = system: UACC-62 melanoma
[8] = system: SF-268 CNS
[9] = system: K-562 leukemia
[10] = system: CCRF-CEM leukemia
[11] = system: LOX IMVI melanoma
[12] = system: HOP-92 NSCLC
[13] = system: MOLT-4 leukemia
[14] = system: HL-60(TB) leukemia
[15] = system: DU-145 prostate
[16] = system: MDA-MB-435
[17] = system: HCC-2998 colon
[18] = system: HOP-62 NSCLC
[19] = system: NCI-H226 lung
[20] = system: SK-MEL-28 melanoma
[21] = system: NCI/ADR-RES ovarian
[22] = system: COLO 205 colon
[23] = system: ACHN renal
[24] = system: OVCAR-5 ovarian
[25] = system: SN12C renal
[26] = system: U251 CNS
[27] = system: HT29 colon
[28] = system: SNB-75 CNS
[29] = system: T-47D breast
[30] = system: MALME-3M melanoma
[31] = system: SK-MEL-5 melanoma
[32] = system: HCT-15 colon
[33] = system: CAKI-1 renal
[34] = system: A549 NSCLC
[35] = system: SNB-19 CNS
[36] = system: EKVX NSCLC
[37] = system: NCI-H460 lung
[38] = system: TK-10 renal
[39] = system: SF-295 CNS
[40] = system: OVCAR-4 ovarian
[41] = system: M14 melanoma
[42] = system: OVCAR-3 ovarian
[43] = system: HS 578T breast
[44] = system: RPMI-8226 leukemia
[45] = system: SW-620 colon
[46] = system: IGROV1 ovarian
[47] = system: MDA-MB-231 breast
[48] = system: SF-539 CNS
[49] = system: PC-3 prostate
[50] = system: A498 renal
[51] = system: KM12 colon
[52] = system: OVCAR-8 ovarian
[53] = system: UACC-257 melanoma
[54] = system: RXF 393 renal
[55] = system: UO-31 renal
[56] = system: SK-MEL-2 melanoma
[57] = system: NCI-H522 lung

## Cc1ccc(NCCN2CCCCC2)c2c(=O)c3ccccc3sc12
[1]
  GI50: 1.56 µM
  TGI: 3.55 µM
[2]
  GI50: 2.43 µM
  TGI: 9.59 µM
[3]
  GI50: 1.68 µM
  TGI: 3.17 µM
[4]
  GI50: 2.25 µM
  TGI: 5.77 µM
[5]
  GI50: 2.04 µM
  TGI: 6.03 µM
[6]
  GI50: 1.63 µM
  TGI: 3.61 µM
[7]
  GI50: 1.92 µM
  TGI: 3.77 µM
[8]
  GI50: 5.33 µM
  TGI: 18.7 µM
[9]
  GI50: 1.64 µM
  TGI: 3.52 µM
[10]
  GI50: 2.38 µM
  TGI: 6.92 µM
[11]
  GI50: 1.78 µM
  TGI: 3.68 µM
[12]
  GI50: 1.88 µM
  TGI: 7.56 µM
[13]
  GI50: 1.99 µM
  TGI: 4.91 µM
[14]
  GI50: 1.66 µM
  TGI: 3.6 µM
[15]
  GI50: 3.76 µM
  TGI: 14.4 µM
[16]
  GI50: 1.78 µM
  TGI: 3.73 µM
[17]
  GI50: 2.16 µM
  TGI: 3.67 µM
[18]
  GI50: 1.55 µM
  TGI: 3.07 µM
[19]
  GI50: 2.24 µM
  TGI: 4.96 µM
[20]
  GI50: 2.43 µM
  TGI: 4.16 µM
[21]
  GI50: 2.45 µM
  TGI: 6.78 µM
[22]
  GI50: 1.45 µM
  TGI: 2.85 µM
[23]
  GI50: 2.68 µM
  TGI: 7.47 µM
[24]
  GI50: 1.97 µM
  TGI: 3.64 µM
[25]
  GI50: 4.35 µM
  TGI: 17.6 µM
[26]
  GI50: 2.61 µM
  TGI: 7.9 µM
[27]
  GI50: 1.97 µM
  TGI: 4.72 µM
[28]
  GI50: 2.61 µM
  TGI: 8.09 µM
[29]
  GI50: 2.02 µM
  TGI: 6 µM
[30]
  GI50: 1.19 µM
  TGI: 2.55 µM
[31]
  GI50: 1.62 µM
  TGI: 3 µM
[32]
  GI50: 3.17 µM
  TGI: 10.8 µM
[33]
  GI50: 0.278 µM
  TGI: 2.43 µM
[34]
  GI50: 1.42 µM
  TGI: 2.97 µM
[35]
  GI50: 2.8 µM
  TGI: 13.1 µM
[36]
  GI50: 2.77 µM
  TGI: 13.1 µM
[37]
  GI50: 1.89 µM
  TGI: 3.88 µM
[38]
  GI50: 2 µM
  TGI: 5.82 µM
[39]
  GI50: 1.63 µM
  TGI: 3.73 µM
[40]
  GI50: 5.57 µM
  TGI: 18.1 µM
[41]
  GI50: 1.61 µM
  TGI: 2.97 µM
[42]
  GI50: 4.75 µM
  TGI: 17.6 µM
[43]
  GI50: 2.03 µM
  TGI: 5.17 µM
[44]
  GI50: 1.49 µM
  TGI: 3.42 µM
[45]
  GI50: 1.96 µM
  TGI: 4.01 µM
[46]
  GI50: 1.48 µM
  TGI: 4.3 µM
[47]
  GI50: 2.12 µM
  TGI: 4.77 µM
[48]
  GI50: 1.97 µM
  TGI: 5.98 µM
[49]
  GI50: 2.14 µM
  TGI: 7.49 µM
[50]
  GI50: 1.91 µM
  TGI: 3.64 µM
[51]
  GI50: 3.81 µM
  TGI: 14.4 µM

## COc1ccc(/C=C2\N=C(SC)N(C)C2=O)cc1
[1]
  TGI: > 100 µM
[2]
  TGI: > 100 µM
[3]
  TGI: > 100 µM
[4]
  TGI: > 100 µM
[5]
  TGI: > 100 µM
[6]
  TGI: > 100 µM
[7]
  TGI: > 100 µM
[8]
  TGI: > 100 µM
[9]
  TGI: > 100 µM
[10]
  TGI: > 100 µM
[52]
  TGI: > 100 µM
[11]
  TGI: > 100 µM
[12]
  TGI: > 100 µM
[14]
  TGI: > 100 µM
[15]
  TGI: > 100 µM
[53]
  TGI: > 100 µM
[16]
  TGI: > 100 µM
[18]
  TGI: > 100 µM
[19]
  TGI: > 100 µM
[20]
  TGI: > 100 µM
[21]
  TGI: > 100 µM
[22]
  TGI: > 100 µM
[23]
  TGI: > 100 µM
[24]
  TGI: > 100 µM
[25]
  TGI: > 100 µM
[26]
  TGI: > 100 µM
[27]
  TGI: > 100 µM
[28]
  TGI: > 100 µM
[29]
  TGI: > 100 µM
[54]
  TGI: > 100 µM
[31]
  TGI: > 100 µM
[32]
  TGI: > 100 µM
[55]
  TGI: > 100 µM
[34]
  TGI: > 100 µM
[56]
  TGI: > 100 µM
[35]
  TGI: > 100 µM
[37]
  TGI: > 100 µM
[38]
  TGI: > 100 µM
[40]
  TGI: > 100 µM
[41]
  TGI: > 100 µM
[42]
  TGI: > 100 µM
[43]
  TGI: 90.4 µM
[44]
  TGI: > 100 µM
[45]
  TGI: > 100 µM
[46]
  TGI: > 100 µM
[47]
  TGI: > 100 µM
[48]
  TGI: > 100 µM
[49]
  TGI: > 100 µM
[50]
  TGI: > 100 µM

## CN1C(=O)/C(=C/c2c(Cl)[nH]c3ccccc23)c2ccccc21
[1]
  GI50: 53.7 µM
  TGI: > 100 µM
[2]
  GI50: 37.4 µM
  TGI: 94.3 µM
[3]
  GI50: 25.9 µM
  TGI: 87.8 µM
[4]
  GI50: 38.2 µM
  TGI: > 100 µM
[5]
  GI50: 25.8 µM
  TGI: 67.1 µM
[6]
  GI50: 32.4 µM
  TGI: > 100 µM
[7]
  GI50: 37.4 µM
  TGI: > 100 µM
[8]
  GI50: 66.7 µM
  TGI: > 100 µM
[10]
  GI50: 29 µM
  TGI: > 100 µM
[52]
  GI50: 63.4 µM
  TGI: > 100 µM
[11]
  GI50: 43.3 µM
  TGI: > 100 µM
[12]
  GI50: 37 µM
  TGI: > 100 µM
[13]
  GI50: 41.8 µM
  TGI: > 100 µM
[14]
  GI50: 32.6 µM
  TGI: 93.4 µM
[15]
  GI50: 89.5 µM
  TGI: > 100 µM
[53]
  GI50: > 100 µM
  TGI: > 100 µM
[16]
  GI50: 23.8 µM
  TGI: 59.9 µM
[18]
  GI50: 31.3 µM
  TGI: > 100 µM
[19]
  GI50: 48.3 µM
  TGI: > 100 µM
[20]
  GI50: 35 µM
  TGI: > 100 µM
[21]
  GI50: 25.5 µM
  TGI: 61.2 µM
[22]
  GI50: 18.1 µM
  TGI: 34.9 µM
[23]
  GI50: 32.9 µM
  TGI: > 100 µM
[24]
  GI50: 55.9 µM
  TGI: > 100 µM
[25]
  GI50: 77.2 µM
  TGI: > 100 µM
[26]
  GI50: 40.4 µM
  TGI: > 100 µM
[27]
  GI50: 25.5 µM
  TGI: 98.5 µM
[29]
  GI50: 22.5 µM
  TGI: 71.2 µM
[30]
  GI50: 25.5 µM
  TGI: > 100 µM
[54]
  GI50: 53.4 µM
  TGI: > 100 µM
[31]
  GI50: 14.6 µM
  TGI: 51.2 µM
[32]
  GI50: 34.1 µM
  TGI: > 100 µM
[55]
  GI50: 37.1 µM
  TGI: > 100 µM
[33]
  GI50: 29.8 µM
  TGI: 89.5 µM
[34]
  GI50: 79.7 µM
  TGI: > 100 µM
[56]
  GI50: 45.1 µM
  TGI: > 100 µM
[35]
  GI50: 35.4 µM
  TGI: > 100 µM
[36]
  GI50: 75.2 µM
  TGI: > 100 µM
[37]
  GI50: 46.7 µM
  TGI: > 100 µM
[38]
  GI50: 14 µM
  TGI: 46.2 µM
[39]
  GI50: 25.9 µM
  TGI: 85.5 µM
[40]
  GI50: 52.3 µM
  TGI: > 100 µM
[41]
  GI50: 19.8 µM
  TGI: 65.8 µM
[42]
  GI50: 22.6 µM
  TGI: 58.7 µM
[43]
  GI50: 28.9 µM
  TGI: 72.9 µM
[44]
  GI50: 24.1 µM
  TGI: > 100 µM
[45]
  GI50: 35.8 µM
  TGI: > 100 µM
[46]
  GI50: 37.6 µM
  TGI: > 100 µM
[47]
  GI50: 39 µM
  TGI: > 100 µM
[48]
  GI50: 33 µM
  TGI: 75.6 µM
[49]
  GI50: 29.5 µM
  TGI: > 100 µM
[57]
  GI50: 21.4 µM
  TGI: 80.1 µM
[51]
  GI50: 2.05 µM
  TGI: 10.1 µM
